The source of these data is patent publication US5043328A, “Formulations containing unsaturated fatty acids for the synthesis of prostaglandins and hydroxy-fatty acids in biological systems” (priority 1986, dated 1991).

Read-outs that look alike come from different tables or passages of the source.

In series [1] the target is T1, enzyme (from seminal vesicles of sheep) (Ovis aries, UniProt P05979).
T1 sequence (P05979 25-600): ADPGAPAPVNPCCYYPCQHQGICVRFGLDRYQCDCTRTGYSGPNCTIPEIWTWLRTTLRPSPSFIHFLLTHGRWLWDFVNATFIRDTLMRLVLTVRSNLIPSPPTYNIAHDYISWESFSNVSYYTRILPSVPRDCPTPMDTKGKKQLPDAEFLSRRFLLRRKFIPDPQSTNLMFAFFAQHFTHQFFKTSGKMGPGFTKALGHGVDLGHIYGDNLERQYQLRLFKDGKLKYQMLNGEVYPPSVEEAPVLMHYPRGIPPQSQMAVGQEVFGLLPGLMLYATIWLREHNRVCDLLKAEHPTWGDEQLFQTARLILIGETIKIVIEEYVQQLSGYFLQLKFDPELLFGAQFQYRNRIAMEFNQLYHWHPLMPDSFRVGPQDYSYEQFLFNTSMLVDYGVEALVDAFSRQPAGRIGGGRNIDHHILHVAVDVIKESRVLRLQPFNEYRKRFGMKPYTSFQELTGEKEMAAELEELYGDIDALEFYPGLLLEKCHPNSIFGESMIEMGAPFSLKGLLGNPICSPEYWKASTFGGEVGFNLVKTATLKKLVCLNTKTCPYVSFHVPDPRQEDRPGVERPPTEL
The procedure: Method 2: Prostaglandin Synthesis
0.3 ml of 0.03M potassium phosphate buffer of pH=8.0 contains 0.5 mg of enzyme (from seminal vesicles of sheep) (Biochemistry 10 (1971) 2372) or homogenate of the inner kidney medulla (Life Sciences 26 (1980) 765), 2.75 μg of ^14 C-arachidonic acid (0.5 μCi) and 0.5 mg of stimulator, and, if appropriate, 0.5 mg of stabilizer substance (see Table 1). After 10 minutes' incubation at 37° C., the reaction is stopped with 0.05 ml of 1.2M citric acid and the mixture is extracted with twice 0.5 ml of ethyl acetate, the combined extracts are freed of solvent, and the residue is dissolved in 0.2 ml of methanol, diluted 1:1 with water and separated by HPLC (nucleosil C-18 column, 125×4.6 mm, from Bischoff, Leonberg, Germany, solvent 300 ml of acetonitrile, 700 ml of water and 1 ml of glacial acetic acid and after 30 minutes pure methanol). The separation of the radioactive fractions is followed by a monitor (LB 504 from Berthold, Wildbad, Germany). The products formed, such as 6-keto-prostaglandin F2alpha, prostaglandin E2, prostaglandin F2alpha and prostaglandin D2, are separated under these conditions.
The prostaglandins PGE2, PGF2 alpha and PGD2 as products from arachidonic acid where quantified by means of method 2, and the sum was related as "total prostaglandin" to 100%. The quantity of "total prostaglandin" formed without the addition of a stimulator was set at f=1; the quantity formed after stimulation was related thereto. f=2 or f=3 therefore means twice or three times the stimulation under the conditions of method 2. The stability of the sample was investigated by means of method 1 (right-hand column). […] Values greater than 25-28% therefore represent a stabilization, and values smaller than 25-28% represent a destabilization. Example No. 1 was carried out without a stimulator. […] The substances test with respect to stabilization (see Method 1 for quantities) were: A) aqueous solution without stabilizer addition, B) ethanolic solution without further addition, C) pyridine solution, D) with rutin, predissolved in dimethyl sulfoxide, dimethyl sulfoxide then stripped off, E) like B) with lecithin, ethanol stripped off, F) like A) with cytochrome c from horse heart (from Boehringer, Mannheim, Germany), G) like A) with methemoglobin (human) (from Sigman, Munich, Germany), H) like A) with bovine serum albumin (from Calbiochem, Frankfurt, Germany), J) like A) or B), but solvent stripped off, K) like J) with cytochrome c, L) like J) with hemoglobin (human) (from Behringwerke, Marburg, Germany), and M) like J) with human serum albumin (from Behringwerke, Marburg, Germany).

For series [2] the following is noted: for Stability (% of remaining arachidonic acid by Method 1): 24 h 37° C.; for undesired decomposition / byproducts of polyunsaturated fatty acid (arachidonic acid) with added stimulator: aqueous medium, result in words. The procedure:
Method 1: Investigation of the Stability of Unsaturated Fatty Acids in the Formulations
The stabilizing action of substances on polyunsaturated fatty acids was investigated as follows:
Test A for Water-Soluble Substances:
0.125 mg of unsaturated fatty acid or Na salt (see tables) (sodium arachidonate, from Sigma, Munich, Germany) is dissolved in 0.05 ml of water. 0.2 ml of aqueous solution which contains 2 mg of stabilizer and can additionally contain 2 mg of stimulator is mixed in (cf. Table 1), 0.1 ml is then taken out immediately, extracted and analysed (see below). Further processing according to modification 1 or 2.
Modification 1 for Aqueous Solutions
After 24 hours incubation at 37° C., 0.1 ml is again taken, extracted and analysed (see below).
Modification 2 for Solid Mixtures (Lyophilisates)
The test solution is lyophilized, the lyophilisate is incubated for 24 hours at 37° C. and then dissolved again in the previous quantity of water, and 0.1 ml is taken, extracted and analysed (see below).
Test B for Water-Insoluble Substances:
0.125 mg of unsaturated fatty acid (arachidonic acid, 5,8,11,14,17-eicosapentaenoic acid or 8,11,14-eicosatrienoic acid, from Sigma, Munich) is dissolved in 0.05 ml of ethanol or dimethyl sulfoxide. 0.2 ml of ethanol (or dimethyl sulfoxide) which contains 2 mg of stabilizer and can additionally contain 2 mg of the stimulator (cf. Table 1) is added thereto, and 0.1 ml is taken immediately and, as below, extracted and analysed. Further treatment according to modification 1 or 2.
Modification 1 for Solutions
After 24 hours' incubation at 37° C., 0.1 ml is again taken, mixed with 0.1 ml of water, extracted and analysed.
Modification 2 for Solid Mixtures
The remaining solution is freed of solvent, incubated for 24 hours at 37° C. and then dissolved again in 0.15 ml of solvent, and 0.1 ml is taken, mixed with 0.1 ml of water, extracted and analysed.
0.05 ml of 1.2M aqueous citric acid solution is added to the samples obtained, and the samples are extracted with twice 0.5 ml of ethyl acetate, the ethyl acetate is removed from the combined extracts and the residue is dissolved in 0.8 ml of methanol and analysed by means of high-pressure liquid chromatography (HPLC) (Rad Pak C-18 column, 100×8 mm, from Waters, Konigstein, Germany, 1.5 ml/minute, solvent 800 ml of methanol, 200 ml of water and 0.1 ml of glacial acetic acid). The separation is monitored with a commercially available UV detector at 206 nm.
The prostaglandins PGE2, PGF2 alpha and PGD2 as products from arachidonic acid where quantified by means of method 2, and the sum was related as "total prostaglandin" to 100%. The quantity of "total prostaglandin" formed without the addition of a stimulator was set at f=1; the quantity formed after stimulation was related thereto. f=2 or f=3 therefore means twice or three times the stimulation under the conditions of method 2. The stability of the sample was investigated by means of method 1 (right-hand column). […] Values greater than 25-28% therefore represent a stabilization, and values smaller than 25-28% represent a destabilization. Example No. 1 was carried out without a stimulator.

Where [3] appears, read: Table 2, share of total prostaglandin.
The mark [4] stands for this setting: seminal vesicle enzyme, 10 min, pH 8.
Where [5] appears, read: Table 1, share of total prostaglandin (=100%).
Where [6] appears, read: A) aqueous solution without stabilizer addition.
The mark [7] stands for this setting: H) like A) with bovine serum albumin.

In the case of `O=C(CCc1ccc(O)cc1)c1c(O)cc(O)cc1O[C@@H]1O[C@H](CO)[C@@H](O)[C@H](O)[C@H]1O` [Example 53, Phlorizin], in series [1] (setting [3]), the PGD2 % is on record as 18%, the PGE2 % worked out at 80% and the PGF2alpha % was determined as 2%. The “relative total prostaglandin f” value in series [1] (setting [4]) worked out at 3. Further, the “Stabilization (% remaining unsaturated fatty acid by Method 1)” value in series [2] (1440 min) was 97%.
As to `N[C@@H](CCC(=O)N[C@@H](CS)C(=O)NCC(=O)O)C(=O)O` [Example 35, Glutathione], in series [1] (setting [5]), the PGD2 % is 0%. In series [1] (setting [5]), this compound came in with a PGE2 % of 100%. The same compound registered a PGF2alpha % in series [1] (setting [5]) of 0%. The “relative total prostaglandin f” value in series [1] (setting [4]) is given as 13.5. For the same compound, the “Stability (% of remaining arachidonic acid by Method 1)” value in series [2] (setting [6]) was 0%; in series [2] (B) ethanolic solution without further addition) it was 80%; in series [2] (C) pyridine solution), 0%; in series [2] (setting [7]), 91%; in series [2] (J) like A) or B), but solvent stripped off), 0%; in series [2] (L) like J) with hemoglobin (human)), 92%. Besides, the “undesired decomposition / byproducts of polyunsaturated fatty acid (arachidonic acid) with added stimulator” value in series [2] is reported as “markedly greater quantity”.
Regarding `O=C1N[C@@H](Cc2c[nH]c3ccccc23)C(=O)N[C@H]1Cc1ccc(O)cc1` [Example 32, Cyclo-TrpTyr], in series [1] (Table 1, result in words), the Stimulation entry is recorded as “positive”. Also, in series [2], the Stabilization result is recorded as “positive”.
Turning to TrpMetAspPhe [Example 28], in series [1] (Table 1, 0.5 mg stimulator, 10 min 37° C., without stimulator f=1), the “relative total prostaglandin f” value worked out at 11.8. In series [1] (setting [5]), the PGD2 % was 20%, the PGE2 % is 73% and the PGF2alpha % is listed as 7%. In addition, the “Stability (% remaining fatty acid by Method 1)” value in series [2] (1440 min) is given as 97%.
In series [1] (setting [5]), `O=C(O)CCCCC1CCSS1` (stereo not shown) [Example 36, Lipoic acid] came in with a PGD2 % of 8%, a PGE2 % of 43% and a PGF2alpha % of 49%. Besides, in series [1] (mixtures with polyunsaturated fatty acids such as arachidonic acid, result in words), the “stimulation of prostaglandin synthesis with much smaller quantities of undesired byproducts” value is “stimulated”. In addition, in series [2], the “undesired decomposition / byproducts of polyunsaturated fatty acid (arachidonic acid) with added stimulator” value is recorded as “fully suppressed”.
Take `Oc1cc(O)c2c(c1)O[C@H](c1ccc(O)c(O)c1)[C@H](O)C2` [Example 59, Epicatechin]: in series [1] (setting [3]), the PGD2 % is recorded as 12%, the PGE2 % was 71% and the PGF2alpha % stood at 17%. Also, the “Stabilization (% remaining unsaturated fatty acid by Method 1)” value in series [2] (1440 min) came out at 89%.
Turning to `NCCc1c[nH]c2ccccc12` [Example 23], in series [1] (setting [5]), the PGD2 % turned out to be 16%. The compound also yielded a PGE2 % in series [1] (setting [5]) of 81%. The same compound registered a PGF2alpha % in series [1] (setting [5]) of 3%. The “Stability (% of remaining arachidonic acid by Method 1)” value turned out to be 20% in series [2] (setting [6]); 100% in series [2] (D) with rutin, predissolved in dimethyl sulfoxide, dimethyl sulfoxide then stripped off); 98% in series [2] (F) like A) with cytochrome c from horse heart); 97% in series [2] (G) like A) with methemoglobin (human)); 100% in series [2] (setting [7]).
For `C[C@@H]1O[C@@H](O[C@H]2[C@H](Oc3cc(O)c4c(c3)O[C@H](c3ccc(O)cc3)CC4=O)O[C@H](CO)[C@@H](O)[C@@H]2O)[C@H](O)[C@H](O)[C@H]1O` [Example 54, Naringin], in series [1] (setting [3]), the PGD2 % worked out at 15%, the PGE2 % was 83% and the PGF2alpha % was determined as 2%. Further, the “relative total prostaglandin f” value in series [1] (setting [4]) turned out to be 2. In addition, the “Stabilization (% remaining unsaturated fatty acid by Method 1)” value in series [2] (1440 min) was 96%.
On the same counts, the results for `O=C1C[C@@H](c2ccc(O)cc2)Oc2cc(O)cc(O)c21` [Example 55, Naringenin] are 20%, 80%, 0%, 1.5 and 96%.
On the same counts, the results for `COC1=C(OC)C(=O)C(C/C=C(\C)CC/C=C(\C)CC/C=C(\C)CC/C=C(\C)CC/C=C(\C)CC/C=C(\C)CC/C=C(\C)CC/C=C(\C)CC/C=C(\C)CCC=C(C)C)=C(C)C1=O` [Example 47, Vitamin Q10, reference compound] are 14%, 8%, 78%, 0.8 and 8%.
